According to patent publication US7141541B1, “Use of peptides” (University Court of the University of Dundee, priority 1999, dated 2006):
Where a SMILES comes first, the peptide text is derived from it. Where no end group is shown, it is not given here. The star is where a group is joined. Biotin = O=C1N[C@H]2[C@H](CS[C@H]2CCCCC(=O)*)N1; Cbz = O=C(OCc1ccccc1)*; CH2F = FC*

Experiments:
serum deprived cells = test: protection from peptide-induced cell death by serum / MAP kinase activation (FIG. 15); assay type: cell-based
Experimental: FIG. 15 illustrates that the acute activation of MAP kinase protects cells from 4E-binding peptide induced cell death; and
In the presence of 10% ECS, cells were resistant to treatment with 20 μm of the peptides. Cells only died if they were serum deprived for 72 hours (more than 85%) within 15 minutes after the peptide had been applied (see FIG. 15). However, if serum deprived cells (72 h) were pre-treated with 10% FCS or with 20 nM PMA (phorbol ester) for 15 minutes before the peptides were added, the cells survived the subsequent peptide treatment (60–70%).
Furthermore, if the serum deprived cells were instead pre-treated with the MAPK inhibitor PD098059 for 1 hour before 10% FCS was added, approximately 80–90% of the cells died.

MRC5 cells [1] = test: peptide-induced cell death (apoptosis) in MRC5 cells; assay type: cell-based; conditions: for biological effect (apoptosis): MRC5 cells / cultured mammalian cells
From the text: FIG. 8 is a table illustrating the induction of apoptosis by eIF4G peptides in MRC5 cells;
FIG. 9 is a summary of the results of inhibition of eIF4G(413-424)-induced apoptosis;

MRC5 cells [2] = test: [35S]methionine incorporation into protein; assay type: cell-based; conditions: serum deprived cells, 30 minutes
Experimental: (§1) FIG. 16 illustrates that eIF4E binding peptide cell death is not through eIF4E's known role in mRNA translation. a) 72 h serum-starved MRC5 cells were treated with 100 μg/ml and 10 μg/ml cylcoheximide, 1 μg/ml and 0.1 μg/ml pactamycine or 10 μM Hu4G peptide for 2 h prior to a MTT assay. Cells were pulsed labelled with [^35S]methionine for 30 min after addition of the inhibitors/peptide. The incorporation of [^35S]methionine into protein was determined following hot trichloroacetic acid precipitation. b) 72 h serum-starved MRC5 cells were treated with 100 μg/ml cycloheximide (Chx), 1 μg/ml pactamycine (Pact) or c) MRC5 cells which had been starved of serum for 72 h were pre-incubated with 100 μg/ml cycloheximide or 1 μg/ml pactamycine for 30 min prior to addition of 10 μM Hu4G peptide. Cells were then further incubated for 1.5 h prior to a MTT assay. Results from three independent experiments (+/− SEM).
Serum deprived cells were treated with the general translation inhibitors Cyclohexamide or Pactamycin at indicated concentrations or the H4G peptide in the presence of 35S-Met for 30 minutes (see FIGS. 16a,b). Cells were lysed and the amount of translation was estimated by counting incorporated 35S-Met in precipitated protein fractions.

MRC5 cells [3] = test: cell survival by MTT assay; assay type: cell-based; conditions: for cell death / cell viability: various concentrations, 72 h serum-starved MRC5 cells, FIGS. 13b,c,d
Experimental: FIGS. 13a–d are graphs showing cell survival (% of control, untreated cells) as measured by MTT assay. a) Lane 1: 10 μM BP2 peptide added to serum-fed cells or Lane 2, 3, 4: 10 μM BP2 peptide added to 24 h, 48 h or 72 h serum-starved cells respectively. Lane 5: 10 μM BP2 YLL-AAA added to 72 h serum starved cells. Lane 6: 72 h serum starved cells incubated in 10% serum for 1 h prior to addition to 10 μM BP2 peptide. Lane 7: 72 h serum starved cells incubated with 100 μg/ml cycloheximide followed by a 1 h incubation with 10% serum prior to the addition of 10 μM BP2 peptide. In all cases the cells were then further incubated for 1 h in 0.1 mg/ml MTT. Cells were lysed in DMSO and absorbance was measured at […]. b–d) Varying concentrations of peptides were added to 72 h serum starved MRC5 cells. After 30 min incubation the cells were then further incubated for 1 h in 0.1 mg/ml MTT. Cells were lysed in DMSO and absorbance was measured at 570 nm.

MRC5 cells [4] = test: MTT assay with general translation inhibitors (FIG. 16); assay type: cell-based; conditions: for protection against the effect of the Hu4G peptide: pre-incubation 30 min prior to 10 μM Hu4G peptide; for cell killing: serum deprived cells
Experimental: as §1

recombinant human eIF4E [5] = biological target: recombinant human eIF4E (Homo sapiens, UniProt P06730); test: in vitro binding (pull-down) assay with eIF4E; conditions: for interaction with human eIF4E: FIG. 12b(i), 1 μg recombinant eIF4E, 0.2 mM biotinylated peptide, 1 h at 4° C.
recombinant human eIF4E (Homo sapiens, UniProt P06730), sequence (P06730 whole entry): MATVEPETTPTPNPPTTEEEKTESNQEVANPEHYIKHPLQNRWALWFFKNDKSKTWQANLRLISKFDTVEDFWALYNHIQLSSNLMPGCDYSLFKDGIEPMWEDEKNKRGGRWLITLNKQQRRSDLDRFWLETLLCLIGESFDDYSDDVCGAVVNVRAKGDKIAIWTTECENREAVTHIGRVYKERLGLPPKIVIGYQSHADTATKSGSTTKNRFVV
Experimental: (§2) Sequences of biotinylated, penetratin-linked peptides. U=Norvaline, a substitution for cysteine. Conserved residues that are important in binding to eIF4E are underlined. b). In vitro binding assay. i) 1 μg recombinant eIF4E was incubated with 0.2 mM biotinylated peptides in a total volume of 50 μl wash buffer (1×PBS/250 mM Kcl) for 1 h at 4° C. ii) 0.2 mM Hu4G or Hu4G YLL-AAA was incubated with 200 μg MRC5 cell lysate for 1 h at 4° C. in a total volume of 50 μl wash buffer. In all cases the biotinylated peptides and associated proteins were pulled down using streptavidin agarose. The proteins were separated by SDS PAGE and subjected to Western blotting using anti-eIF4E antibody. Detection was by ECL;
In order to study directly the role of eIF4E in cell transformation, a series of biotinylated synthetic peptides (Peptides synthesised by Cyclacel) corresponding to the eIF4E interacting domain (binding motif) of human eIF4G, and wheat eIF4G and alanine substituted peptides thereof were synthesised (see FIG. 12a) and tested for their capacity to interact with ^35S-Met labelled in vitro translated human eIF4E (NB. Peptides BP1 and BP1 YLM-AAA were not biotinylated). Peptides were coupled to streptavidin coated agarose beads by a N-terminus linked biotin group and washed in PBS/0.2% Tween 3× before being incubated for 1 hour at +4° C. with in vitro translated human eIF4E. Beads were washed as above and boiled for 5 min. in SDS loading buffer before the peptide bound proteins were separated on a 10% SDS gel. The bands were visualised by autoradiography.

MRC5 cells [6] = test: mitochondrial permeability transition (JC1 dye, confocal microscopy); assay type: cell-based; conditions: 10 μM peptide, serum-starved MRC5 cells
Experimental: (§3) MRC5 cells were incubated with 10 μM Hu4G peptide for 10 min. Cells visualised with fluorescein by fluorescence microscopy. […] 80% of cells incubated with the 10 μM Hu4G peptide fluoresced positive. d) Images of DAPI-stained MRC5 cells incubated with either 20 μM Hu4G or Hu4G YLL-AAA peptide for 40 min. Arrows indicate the position of a cell with either a condensed nucleus (top right) or a nucleus with a punctate appearance (bottom left). e) Visualisation of effects on the MPT. Serum-starved MRC5 cells were loaded with 0.1 μM JCl for 30 min prior to addition of 10 μM peptide. Changes in mitochondrial permeability were viewed by laser scanning confocal microscopy (krypton/argon laser) using identical setting. Green channel: excitation 488 nm/emission 522 nm. Red channel: excitation 568 nm/emission 585 nm. Channels were collected separately to avoid cross over. Images were taken 5 min after addition of the peptide;
An early event considered decisive in apoptosis is the opening of the mitochondrial permeability transition (MPT) pore (20–22). To characterise further the eIF4E-binding peptide-induced cell death, the development of the MPT was investigated in living MRC5 cells loaded with the fluorescent dye, JC1 (21).

[7] = test system: HaCaT, Swiss 3T3, RATI and IIeLa cells; test: cell survival in other cell-types; assay type: cell-based; conditions: results not shown
[8] = biological target: T1, eIF4E in MRC5 cell lysate (Homo sapiens, UniProt P06730); test: pull-down of eIF4E from MRC5 cell lysate; assay type: binding; conditions: 0.2 mM peptide, 200 μg MRC5 cell lysate, 1 h at 4° C.
T1 construct: endogenous in cells; host or cells: MRC5
T1 sequence (P06730 whole entry): as above
Experimental: as §2

MRC5 cells [9] = test: TUNEL analysis; assay type: cell-based; conditions: 10 μM peptide
Experimental: as §3

[10] = test system: cap-dependent translation initiation; test: in vitro translation assay, cap-dependent; assay type: biochemical
[11] = test system: cap-independent translation initiation; test: in vitro translation assay, cap-independent; assay type: biochemical
recombinant human eIF4E [12] = biological target: T2, recombinant human eIF4E (human, UniProt P06730 1-217, limits assumed); test: streptavidin agarose pull-down with biotinylated peptide
T2 construct: also called in vitro translated human eIF4E; eukaryotic initiation factor 4E
T2 sequence (P06730 whole entry): as above
Experimental: as §2, with “FIG. 12 illustrates that eIF4E-binding peptides leads to rapid, dose-dependent, cell death. a). Sequences” for “Sequences”, “µg” for “μg”, “µl” for “μl”

recombinant human eIF4E [13] = biological target: T2, recombinant human eIF4E; test: in vitro pull-down of recombinant human eIF4E (FIG. 5)

Molecule: COc1cccc(-c2cc(=O)c3ccccc3o2)c1N [PD098059, reference compound]
- cells died (serum deprived cells; serum deprived cells pre-treated for 1 hour before 10% FCS was added): 80–90%
- effect on serum induced resistance to the peptides (MRC5 cells [1]; pre-treatment with the MEK inhibitor): serum induced resistance could be inhibited

Molecule: CCCCCCCCCCCCCC(=O)O[C@@H]1[C@@H](C)[C@@]2(O)[C@@H](C=C(CO)C[C@]3(O)C(=O)C(C)=C[C@@H]23)[C@@H]2C(C)(C)[C@]12OC(C)=O [PMA]
- cells survived the subsequent peptide treatment (serum deprived cells; serum deprived cells (72 h) pre-treated with 20 nM for 15 minutes): 60–70%

Molecule: COC(=O)C[C@H](NC(=O)[C@H](C)NC(=O)[C@@H](NC(=O)OCc1ccccc1)C(C)C)C(=O)CF [ZVAD.fmk, reference compound] (Cbz-Val-Ala-Asp(OMe)-CH2F)
- effect of pre-treatment on peptide-induced cell death (MRC5 cells [1]; MRC5 cells, results not shown): did not affect peptide-induced cell death

Molecule: C[C@@H]1C[C@@H]([C@H](O)CC2CC(=O)NC(=O)C2)C(=O)[C@@H](C)C1 [cycloheximide]
- incorporation of 35S-Met (translation) (MRC5 cells [2]): block translation
- effect on protective effect of serum (MRC5 cells [3]; pre-incubation with 100 μg/ml, then 10% serum 1 h, then 10 μM BP2 peptide): could not be inhibited
- protection against the effect of the Hu4G peptide (MRC5 cells [4]): did not result in any protection
- cell killing (MRC5 cells [4]): do not kill the cells

Molecule: CC(=O)c1cccc(N[C@H]2[C@H](N)[C@@](NC(=O)N(C)C)([C@H](C)O)[C@@](C)(O)[C@@]2(O)COC(=O)c2c(C)cccc2O)c1 [pactamycin]
- incorporation of 35S-Met (translation) (MRC5 cells [2]): block translation
- protection against the effect of the Hu4G peptide (MRC5 cells [4]): did not result in any protection
- cell killing (MRC5 cells [4]): do not kill the cells

Molecule: Hu4G Y-A: singly alanine-substituted, penetratin-linked human eIF4G peptide (KKRADREFLLGFRQIKIWFQNRRMKWKK)
- interaction with human eIF4E (recombinant human eIF4E [5]): lower binding affinity
- biological effect (apoptosis) (MRC5 cells [1]; FIG. 8): intermediate biological effect
- cell death / cell viability (MRC5 cells [3]): reduced capacity to induce cell death

Molecule: Hu4G YLL-AAA: triple alanine substituted, penetratin-linked human eIF4G peptide, unable to bind eIF4E (KKRADREFAAGFRQIKIWFQNRRMKWKK)
- changes in JC1 fluorescence (MPT pore opening) (MRC5 cells [6]): No changes in florescence were observed
- cell survival [7]: no effect on cell survival
- interaction with human eIF4E (recombinant human eIF4E [5]): did not interact with eIF4E
- biological effect (apoptosis) (MRC5 cells [1]; FIG. 8): did not cause the observed biological effect (apoptosis)
- binding of eIF4E in cell lysates [8]: did not
- TUNEL signal (MRC5 cells [9]): No signal was observed

Molecule: RVRYSRDQLLDL (listed as Triticum aestivum) [wheat eIF4G(62-73)]
- inhibition of cap-dependent translation initiation in vitro [10]: found to inhibit cap-dependent translation initiation
- binding to recombinant human eIF4E in vitro (recombinant human eIF4E [5]; FIG. 4, FIG. 5): bound to and pulled down more recombinant human eIF4F in vitro than human eIF4G(569-580) did
- inhibition of cap-independent translation initiation in vitro [11]: not cap-independent translation initiation

Molecule: W4G: biotinylated, penetratin-linked peptide of the eIF4E binding motif of wheat eIF4G (Biotin-RVRYSRDQLLDLRQIKIWFQNRRMKWKK)
- effect of limited serum treatment on sensitivity to the peptide (MRC5 cells [1]; FIG. 9): Resistance
- cell death (possibly by apoptosis) (MRC5 cells [1]; serum starved cell lines, FIG. 8): caused rapid cell death
- cell death / cell viability (MRC5 cells [3]): rapid, dose-dependent, cell death

B1: Human eIF4G(569-580)Y416AL421AL422A-Penetratin (peptide)
peptide: KKRADREFAAGFRQIKIWFQNRRMKWKK
modifications: not fully specified (N-terminus)
notes: Order of pieces from the printed name; also called Hu4G YLL-AAA; triple alanine human eIF4G peptide
- binding result (recombinant human eIF4E [12]): no binding (tested: 0.2 mM peptide (FIG. 12b legend))

Molecule: RVRYSRDQLLDL [wheat eIF4G(62-73)]
- binding result (recombinant human eIF4E [13]): binds

Molecule: KKRYDREFLLGF (also called human eIF4G413-424) [human eIF4G(569-580)]
- binding result (recombinant human eIF4E [13]): binds
